The subject of one series is mice. Kind of series: Determination of minimum toxic dose. It is filed as in vivo. As to conditions: mouse, in vivo, 300 mg/kg, 1440 min. How it is done: 2. Determination of Minimum Toxic Dose
Maximum doses of 300 mg/kg of the test substance were administered orally to male mice weighing 20-25 g. The animals were observed carefully for 3 hours for toxicity symptoms. In addition, all symptoms and deaths were recorded over a period of 24 hours after administration. Associated symptoms were also observed and recorded. If death or severe toxic symptoms were observed, additional mice were administered increasingly lower doses. The lowest dose which produced death or severe toxic symptoms is given in the following Table B as the minimum toxic dose.

A further series concerns the target T1, histamine-(H1)-receptor (Cavia porcellus, UniProt P31389).
T1 construct: Segments of the ileum 1.5 cm long from Dunkin Hartley guinea pigs; from tissue; host or cells: isolated ileum segments of Dunkin Hartley guinea pigs
The series can be described thus: Anti-histamine-(H1) effect, inhibition of histamine-induced contraction of isolated guinea pig ileum in vitro. Format: cell-based, Dunkin Hartley guinea pigs. As to conditions: histamine 5 × 10^-6 mole/l, test substance 10^-6 mole/l. How it is done:
3. Investigation of Anti-Histamine-(H1) Effect Based on Histamine-(H1)-Receptor Antagonism In Vitro
To investigate the histamine-(H1)-receptor antagonism of the test substances, the inhibiting effect of the substances on histamine-induced contractions of the smooth muscle was determined in vitro on the isolated organ. Isolated strips of organ from the ileum are suitable for this purpose. In an organ bath of physiological saline solution the smooth muscle strips react to the addition of histamine by contracting. […] The extent of regression of the contraction is an indication of the anti-histamine-(H1) activity of the compounds. The investigation was carried out analogously to the method originally described by Magnus (Pfluegers Arch. 102, 123 (1904)). Procedure for determining the smooth muscle contraction inhibiting effect on isolated guinea pig ileum induced by a 5×10^-6 molar histamine concentration.
Segments of the ileum 1.5 cm long from Dunkin Hartley guinea pigs having a body weight of 300 500 g were used for the test. Each strip was placed in an organ bath of 10 ml of physiological saline solution according to Krebs-Henseleit and attached to a conventional apparatus for isotonic measurement of changes in length of the ileum strips (automated Celaster measuring apparatus), so that the tissue was under 1 g of tension. The bath was kept at a pH of 7.4 and gassed with a mixture of 5% CO2 and 95% 02. After an equilibration phase, an isotonic contraction of the tissue was induced by adding histamine in a final concentration of 5×10^-6 mole/liter and washing it out again after a contact time of 30 seconds. Only tissues samples from which three reproducible contractions were obtained at 10 minute intervals were used in the subsequent test. The test substances were then added in a final concentration of 10^-6 mole/liter, and after 30 seconds contact time histamine was again added up to a concentration of 5×10^-6 mole/liter. The resulting contractions were measured over 30 seconds. The tissue was then washed several times over a period of 10 minutes. Histamine was then added again to stimulate a contraction. The resulting contractions were again measured over 30 seconds. The difference between the amplitude of the contraction obtained by histamine addition alone and the amplitude of the contraction obtained in the presence of the test substance was determined and expressed in terms of % inhibition.
The inhibiting effects on the contractions induced by histamine 30 seconds after administration of the test substance and on the contractions induced by the addition of histamine 10 minutes later are listed in the table.

For series [1], the system named is cyclooxygenase (6-keto-PGF1α release). Kind of series: Cyclooxygenase inhibition: 6-keto-PGF1α release from zymosan-stimulated mouse peritoneal macrophage cells. It is filed as cell-based. As to conditions: Peritoneal macrophage cell; zymosan-stimulated mouse peritoneal macrophage cells, 10^-5 mole/l; read-out: In vitro % inhibition upon release of 6-keto-PGF1α. An excerpt: 5. In vitro Determination of Cyclooxygenase Inhibition and 5-Lipoxygenase Inhibition
After a cell is activated, arachidonic acid contained in cell membranes is metabolized in two ways. Leucotrienes, inter alia leucotriene C4, are formed due to the action of the enzyme 5-lipoxyqenase (=5-LO), and prostanoids are formed due to the action of the enzyme cyclooxygenase (=CO). In in vitro systems these metabolites are secreted from the cell.
To evaluate the cyclooxygenase-inhibiting and 5-lipoxygenase-inhibiting properties of the test substances, their inhibitory activity on the biosynthesis of the arachidonic acid derivatives leucotriene C4 (=LTC4) and 6-keto-prostaglandin F1α (=6-keto-PGF1 α) was determined in vitro on mouse peritoneal macrophage cells. For this purpose the LTC4 and 6-keto-PGF1 α contents of a mouse peritoneal macrophage cell culture medium were determined by zymosan stimulation as described by Scott et al. (J. Exp. Med. 152 (1980), 324-335) and by Fradin et al., (Prostaglandins, 33 (1987), 579-589).
A cell suspension containing peritoneal cells from male mice 8-10 weeks old was obtained in a known manner. A solution marketed under the designation RPMI 1640 (Manufactured by Gibco) was used as the cell culture medium, to which heparin (10 international units/ml) and antibiotics were added according to the procedure of Bonney et al. (Biochem. J. 176 (1978) 422-433). The cell suspension was adjusted to a cell concentration of 10^6 cells per ml and distributed uniformly on titer dishes containing 24 1-ml titer cells (wells). These were kept for two hours in a humidified incubator filled with air enriched with 7% CO2. Cells not adhering to the titer well walls were then removed by washing. The remaining macrophage cells adhering to the walls were incubated for about 12 hours in a suspension medium to which 0.1% of bovine serum albumin (BSA=Bovine Serum Albumin) was added. The suspension medium was then replaced by a Hanks salt solution (=Hanks Balanced Salt Solution=HBSS) with 10 mmoles of Hepes (=hydroxyethylpiperazinoethanesulfonic acid) to which a 0.1% strength solution of the test substances in aqueous, 1% strength dimethylformamide or only the solvent had been added. After 15 minutes the arachidonic acid metabolism was stimulated by adding […] of zymosan (=glycoprotein mixture isolated from cell walls of beer yeast, Saccharomyces cerevisiae, Manufactured by Sigma Chemical Co., Munich) per titre cell. After 2 hours samples of the respective supernatant liquid in each cell were examined for their 6-keto-PGF1α and LTC4 contents by an enzyme immunoassay (=EIA). This EIA is carried out following the method of Pradelles et al. (Analytical Chem. 57 (1985), 1170-1173). The determination of LTC4 and the determination of 6-keto-PGF1α were each carried out on suitable dilutions of the samples (1:50 to 1:250 for the LTC4 determination and 1:250 to 1:1,250 for the 6-keto-PGF1α determination) in comparison with a comparative scale. To determine the inhibiting effect of a 10^-5 molar concentration of the compounds, the amounts of reference eicosanoid were determined, and the inhibiting effect was calculated therefrom in % inhibition compared to the measurements of the zymosan controls.

T1 sequence (P31389 whole entry): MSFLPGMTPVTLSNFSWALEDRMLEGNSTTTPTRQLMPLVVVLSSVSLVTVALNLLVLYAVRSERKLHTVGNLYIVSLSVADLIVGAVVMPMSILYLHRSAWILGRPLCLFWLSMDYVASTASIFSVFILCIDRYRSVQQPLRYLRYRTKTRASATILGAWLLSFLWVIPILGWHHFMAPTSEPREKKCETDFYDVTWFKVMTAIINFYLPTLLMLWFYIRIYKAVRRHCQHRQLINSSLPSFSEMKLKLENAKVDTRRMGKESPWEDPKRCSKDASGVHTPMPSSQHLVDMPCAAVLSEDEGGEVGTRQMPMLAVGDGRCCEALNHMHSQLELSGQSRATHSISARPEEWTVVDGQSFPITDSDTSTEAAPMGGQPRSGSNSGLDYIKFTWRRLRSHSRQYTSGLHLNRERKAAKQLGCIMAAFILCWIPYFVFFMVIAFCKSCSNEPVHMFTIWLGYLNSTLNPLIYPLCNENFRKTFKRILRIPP

`O=C1Nc2ccccc2SC1CCCN1CCC(Nc2nc3ccccc3n2Cc2ccc(F)cc2)CC1` (stereo not shown) [Example 8] came in with a Minimum toxic dose in the series with mice of 300 mg/kg. In addition, the “in vitro (H1)-receptor antagonism, % inhibition of histamine-induced ileum contractions after 30 seconds” value at histamine-(H1)-receptor (after 30 seconds) is 5%. Moreover, on histamine-(H1)-receptor (after 10 minutes), the “in vitro (H1)-receptor antagonism, % inhibition of histamine-induced ileum contractions after 10 minutes” value was found to be 44%. Moreover, the inhibition (in general, the percentage by which the read-out fell short of the control) at 10 µM in series [1] came to 40%.

The values are drawn from patent publication US5283243A, “Piperidinoalkylbenzoxazine and piperidinoalkylbenzothiazine compounds, and medicaments containing them” (Kali-Chemie Pharma GmbH, priority 1990, dated 1994).
